{
  "source": "patent US20220073613A1",
  "about": "“ACTIVATABLE MASKED ANTI-CTLA4 BINDING PROTEINS” (Xilio Development, Inc., priority 2018, published 2022)",
  "key": {"9D9 antibody": {"system": "9D9 antibody", "assay": "Surface Plasmon Resonance of masking peptide binding to 9D9 antibody", "conditions": "SPR, reference channel", "description": "FIGS. 1A and 1B is a series of graphs showing in vitro analyses of anti-CTLA4 antibody occlusion by a masking peptide. Surface plasmon resonance (SPR) was performed to examine A) kinetics and B) affinity between 9D9 antibody (ligand) and masking peptide […] (analyte). Analytes were run in increasing concentrations of 2-fold serial dilutions from 0.1 to 50 μM at 37° C. Reference-subtracted response was plotted. SPR was performed three times and representative traces from one experiment are shown.\nSurface Plasmon Resonance was performed on a GE Biacore T200 instrument at 37° C. The 9D9 antibody and isotype control (reference channel) were coupled at 100 RU immobilization level to CM5 chip (GE Healthcare). Peptides were synthesized and diluted into HBS-EP+ running buffer (GE Healthcare). The binding data were analyzed using Biacore Evaluation Software, version 3.0."}, "MC38 conditioned media": {"system": "MC38 conditioned media", "assay": "AMSP-MS kinetic analysis of AK10 peptides, MC38", "format": "biochemical, mouse", "conditions": "MC38 serum-free conditioned media", "description": "(§1) Ten sequences (AK10) shown in Table 19 were analyzed via AMSP-MS. These sequences were slightly modified from the original sequences to generate mass spectrometry-compatible peptides (in some cases adding basic residues to add positive charge) and spacing residues (GG) to produce longer ˜14-mer peptides. The peptides were prepared at a 500 nM final concentration in the AMSP-MS reaction. The AK10 library was also separately analyzed by LC-MS/MS for chemical validation of the peptide species. The AMSP-MS analysis was performed under standard substrate specificity profiling conditions, sampling time points during the reaction incubation at 0, 15, 60, 240 and 1200 min. Peptides were quantified by mass spectrometric label-free quantitation from the MS1 precursor ion peak areas for each peptide species. Enzyme progress curves were modeled in GraphPad Prism software v 8.0 and data were fitted using non-linear least squares fitting to the first order kinetic equation: where Y=percent product formation, Kobs is the observed rate, and t=time. In Michaelis-Menten kinetics, the observed rate Kobs is a function of the enzyme concentration and catalytic efficiency (kcat/KM). In this analysis of an enzyme mixture, Kobs was used to rank product cleavages."}, "NAT conditioned media": {"system": "NAT conditioned media", "assay": "AMSP-MS kinetic analysis of AK10 peptides, NAT", "format": "biochemical, human", "description": "as §1"}, "tumor conditioned media": {"system": "tumor conditioned media", "assay": "AMSP-MS kinetic analysis of AK10 peptides, patient tumor", "format": "biochemical, human", "description": "as §1"}, "MB49 tumors": {"system": "MB49 tumors", "assay": "MB49 murine bladder tumor model, efficacy and pharmacodynamics", "set-up": "species or system C57/BL6-huCTLA4 mice", "conditions": "mouse, in vivo", "description": "Efficacy and pharmacodynamics (PD) of anti-CTLA4 antibodies were assessed using the MB49 murine bladder tumor model. Efficacy was assessed by administering each test antibody (RSV-m control antibody, ipilimumab, Antibody 2-6, Antibody 2-14, and Antibody 2-15) and then assessing tumor volume and body weight. The anti-RSV control antibody contains S239D and I332E mutations (RSV-m control antibody). Peripheral immunophenotyping was also carried out on day 5, which assessed the percentage of CD4+Ki67+ cells and the percentage of CD4+ICOS+ cells in the peripheral blood on day 5 following administration. As used herein, dosing in mg/kg is also referred to as “mpk.” MB49 cells were inoculated subcutaneously into C57/BL6-huCTLA4 mice. Treatment started when the tumors reached approximately 350 mm^3. […]\nPharmacodynamics is assessed by administering antibody to each of five cohorts of mice, with dosing (mg/kg) as shown in Table 16. Immunophenotyping among other readouts are performed in the tumor, liver, spleen, and blood. T cells are assessed by measuring Foxp3+CD25+ cells as a percentage of CD4+ cells, and CD8+ cells are measured as a percentage of CD45+ cells. Cleavage and drug levels in tumors, liver, kidney, spleen, and plasma is also assessed."}},
  "note": "Entries after “also recorded” stand apart in the source; their conditions may differ.",
  "data": [
    {"substance": "CNLIVEGHC", "values": [
      {"measurement": "binding to isotype control antibody", "setting": "9D9 antibody", "result": "did not bind"}
    ]},
    {"substance": "LSGRSNAMPYDLYHP [AK-09]", "values": [
      {"measurement": "ranking as substrate (relative efficiency)", "setting": "MC38 conditioned media", "result": "best substrates"},
      {"measurement": "ranking as substrate (relative efficiency)", "setting": "NAT conditioned media", "result": "better performing substrates"}
    ]},
    {"substance": "MPYDLYHPRQARVVG [AK-10]", "values": [
      {"measurement": "ranking as substrate (relative efficiency)", "setting": "MC38 conditioned media", "result": "best substrates"},
      {"measurement": "ranking as substrate (relative efficiency)", "setting": "NAT conditioned media", "result": "better performing substrates; also recorded: most efficient NAT substrate"}
    ]},
    {"substance": "RGGDSGGFMLTGGK [AK-05]", "values": [
      {"measurement": "ranking as substrate (relative efficiency)", "setting": "NAT conditioned media", "result": "weaker substrates"}
    ]},
    {"substance": "RGGMPYDLYHPGGK [AK-04]", "values": [
      {"measurement": "ranking as substrate (relative efficiency)", "setting": "NAT conditioned media", "result": "better performing substrates"},
      {"measurement": "ranking as substrate (relative efficiency)", "setting": "tumor conditioned media", "result": "top cleavages"}
    ]},
    {"substance": "RGGVPLSLYSGGGK [AK-03]", "values": [
      {"measurement": "ranking as substrate (relative efficiency)", "setting": "tumor conditioned media", "result": "top cleavages"}
    ]},
    {"substance": "ipilimumab [reference compound]", "values": [
      {"measurement": "Regulatory T cell depletion and CD8+ T cell activation in the tumor microenvironment", "setting": "MB49 tumors", "result": "not"}
    ]}
  ]
}
